What was measured:
[1] = molecular target: T1, Der p 1 (Dermatophagoides pteronyssinus, UniProt P08176); parameters: method as in PMID 9871695; settings: irreversible acyloxymethyl ketone inhibitors, Figure 1; cited from earlier work
T1 sequence (P08176 99-320): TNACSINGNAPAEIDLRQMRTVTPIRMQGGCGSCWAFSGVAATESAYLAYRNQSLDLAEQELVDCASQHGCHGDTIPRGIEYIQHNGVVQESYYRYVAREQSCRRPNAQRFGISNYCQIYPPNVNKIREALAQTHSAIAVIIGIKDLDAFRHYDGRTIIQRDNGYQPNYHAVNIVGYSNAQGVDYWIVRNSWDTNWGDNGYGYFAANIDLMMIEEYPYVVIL

[2] = molecular target: human liver Cat B (Homo sapiens, UniProt P07858); test: Cathepsin B inhibition assay; settings: read-out: Cat B IC50; mean ± SE
Method: Inhibition of Cat B was measured as described with modifications.[25] […] Progress curves were followed at 30 °C by detection of fluorescence at 320/420 nm (excitation/emission).
(§3) In all cases, for reactions involving inhibitors, the amount of reaction buffer was adjusted to 60 μL, the inhibitor added as a 10 μL aliquot, and incubated for 20 min with the enzyme prior to reaction start.

[3] = Measurement of LogD7.4 (n-octanol/PBS shake); assay type: physicochemical; settings: single determination, n-octanol/PBS pH 7.4; read-out: Log D7.4
Method: Appendix 4. Measurement of LogD7.4
Test compounds (~1 mg) were weighed into 2 mL HPLC vials. n- Octanol (0.7 mL), pre-saturated with 10 mM phosphate buffered saline pH7.4 (PBS), was added to each vial followed b y PBS (0. 7 mL), which had been pre-saturat ed with n-octanol. The mixtures were shaken for 90 min and then centrifuged for 10 min at 4,000 rpm. The upper organic l ayer (0.2 m L) and the aqueous la yer (0.5 mL) were removed from each vial and anal yz e d b y LC -MS. Mass spect ral anal ysis was used to confirm peak identity whilst the concentration of compound was assessed by a diode arra y det ecto r. The logD for each compound was calculated b y takin g th e lo g of its concentration ratio between the oct anol and aqueous la ye r s.Given the robustness of the assa y and the fact that the info rmation was us ed onl y for gen eral guid ance, thes e measu rements were based on singlicate det erminations.

[4] = system: rat alveolar macrophage line NR8383; test: Stability in the presence of airway macrophages; assay type: in vitro ADME; settings: over 2 h
Method: Stability in the presence of epithelial cells and ma crophages.
NR8383 Airway macroph a ges
were grown in suspension culture in F12K, collected b y centrifugation, washed in serum-free
exposed to test compounds in serum-free F12K at a standard concentration of 100 nM in a 5%
CO2 environment at 37 °C. Samples were removed at selected time points for quantitative
Assa ys w ere p er formed in replicate and t he data ex pressed as mean ± SE.

[5] = molecular target: T1, Der p 1; test: biochemical; assay type: biochemical; settings: mean ± SE
Method: Automated screening of inhibitory activity toward group 1 HDM peptidase allergens was performed as described elsewhere[25],[43] with the minor modification that Der p 1 or Der f 1 were incubated with inhibitors for 20 min prior to initiation of reactions by addition of substrate. In initial screening, the activity of each compound was measured using a series of 10 doubling dilutions from a starting concentration of 50 μM. […] Assays were performed in triplicate for calculation of mean ± SE IC50 values.

[6] = molecular target: Der f 1 (Dermatophagoides farinae, UniProt P16311); test: Group 1 HDM peptidase allergen inhibition assay (Der f 1); assay type: biochemical, D. farinae; settings: in vitro enzymatic assay, mean ± SE
Method: Automated screening of inhibitory activity toward group 1 HDM peptidase allergens was performed as described elsewhere[25],[43] with the minor modification that Der p 1 or Der f 1 were incubated with inhibitors for 20 min prior to initiation of reactions by addition of substrate. In initial screening, the activity of each compound was measured using a series of 10 doubling dilutions from a starting concentration of 50 μM. Compounds showing optimizable activity were cherry-picked for multiple (up to six) rounds of rescreening to confirm activity and stability and to determine IC50 values over a range of concentrations that were compound-directed by initial screening. Assays were performed in triplicate for calculation of mean ± SE IC50 values.

[7] = Pharmacokinetics after oral and iv dosing to rats; assay type: in vivo, Sprague-Dawley rat; settings: for Cmax / bioavailability: male, Sprague-Dawley, plasma; for Cmax / bioavailability / free conc Cmax: rat; for Cmax / free conc Cmax: 5 mg/kg po; for bioavailability: po, 5 mg/kg, read-out: F % (bioavailability)
Method: (§1) Appendix 2. Pharmaco kinetics an d P l a s ma Protein Binding […]
Pharma cokinetics. In vivo PK characteristics were determined using non- fasted Sprague-Dawle y rats (mal e, 200-300 g, 10- 16 weeks of age) with groups of three animals per route per compound. Soluble formulations were developed and verified b y HP LC/UV s o that compounds were dosed discretel y b y the iv (1 mg/kg, 1 mL/kg) and po (5 mg/kg, 5 mL/kg) routes. Blood samples were obtained at various times after dosing and plasma prepared for LC -MS-MS quantification of the test substance after inclusion of an intern al standard . PK p aramet ers were calculated usin g a non -compartmental model in WinNonlin v5.2.
(§2) Plasma Protein Binding Assay. PPB was determined with a Rapid Equilibrium Dialysis device using 8 kDa molecular weight cut-off inserts (Fisher Scientific UK Ltd, Leicest ershire, UK) as described b y the manufacturer. R at (Sprague Dawl e y strain) plasma EDTA K2 (mixed gender, pooled, SeraLab, West Sussex, UK) was thawed and centrifuged at 13,000 x g for 10 min to remove precipitates before being spiked with compounds (5 µM). The concentrations of compounds in the plasma and buffer chambers were determined b y LC -MS-MS (AB Sciex 3200 QTrap) anal ysis after 4 h incubation at 37 °C. Binding was calculated from the concentration percentage in both chambers as shown below. Assays were p erfo rmed in replicate and the data

[8] = system: sensitized BN rats challenged with mixed HDM allergens; test: HDM allergen challenge of sensitized BN rats, BAL cells; assay type: in vivo, Brown Norway rat; settings: single dose 12 μg/kg (18 nmol/kg) 2 h prior to challenge, BAL 48 h
From the text: For other studies, rats were actively sensitized to a natural mixture of HDM allergens prepared from laboratory cultures of Dermatophagoides pteronyssinus. Animals were sensitized by the ip route in the absence of additional adjuvant on day 0, 7, and 14. […] Negative control groups comprised naïve, unsensitized animals or those sham-sensitized with vehicle solution.
Test ADIs were delivered as intratracheal aerosols of 25–30 μm mass median diameter from a Penn-Century IA-1B microsprayer at various times prior to allergen challenge. Allergen or vehicle challenge was similarly delivered by Penn-Century microsprayer on day 21 of the protocol. These procedures were conducted under anesthesia with isoflurane in oxygen. Test ADIs were generally dosed in a constant 50:1 molar ratio to the Der p 1 content of the allergen challenge mixture.
Animals were killed by sodium pentobarbital overdose 48 h after allergen challenge because this is the optimal sampling point to assess the recruitment of eosinophils (our unpublished observations). The airways were lavaged with 3 × 4 mL aliquots of Hanks’ Balanced Salt Solution and the recovered cells pooled and counted automatically (ADVIA; Bayer Healthcare, Diagnostics Division, UK). […] Cells were counted by an independent observer using light microscopy under oil immersion (×1000). […]

[9] = system: nonsensitized rats challenged with a natural mixture of HDM allergens; settings: rat, in vivo
[10] = Plasma protein binding, Rapid Equilibrium Dialysis; assay type: in vitro ADME; settings: both sexes, Sprague Dawley, plasma (EDTA K2, pooled), rat plasma, 4 h at 37 °C, read-out: PPB (converted)
Method: as §1, §2

[11] = molecular target: recombinant human Cat S (Homo sapiens, UniProt P25774); test: Cathepsin S inhibition assay; assay type: biochemical; settings: in vitro enzymatic assay, mean ± SE; read-out: Cat S
Method: as §3

[12] = 5 mg/kg po compared with 1 mg/kg iv, nonfasted Sprague–Dawley rats, mean ± SE, n = 3

Sequence of Der f 1 (P16311 99-321): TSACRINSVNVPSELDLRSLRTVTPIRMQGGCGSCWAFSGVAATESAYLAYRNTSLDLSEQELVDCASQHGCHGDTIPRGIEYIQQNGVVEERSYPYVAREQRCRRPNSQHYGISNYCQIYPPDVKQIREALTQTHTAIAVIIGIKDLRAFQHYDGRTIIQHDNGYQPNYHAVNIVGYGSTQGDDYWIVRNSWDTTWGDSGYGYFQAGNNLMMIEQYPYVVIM
Sequence of recombinant human Cat S (P25774 115-331): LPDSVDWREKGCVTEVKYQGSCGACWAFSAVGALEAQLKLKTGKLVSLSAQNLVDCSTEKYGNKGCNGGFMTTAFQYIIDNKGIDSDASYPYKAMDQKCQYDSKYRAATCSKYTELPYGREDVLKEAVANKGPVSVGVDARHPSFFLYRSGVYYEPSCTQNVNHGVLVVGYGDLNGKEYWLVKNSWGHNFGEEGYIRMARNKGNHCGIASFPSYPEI

| SMILES | Kobs/[I] [1] | IC50 [2] | logD at 1.5 h [3] | IC50 [6] | Cmax ([7]; mean ± SE, n = 3) | bioavailability [7, 12] | free conc Cmax [7] | efficacy, inhibition of eosinophil recruitment [9] | fraction unbound at 4 h, 5 µM [10] | further results |
| --- | --- | --- | --- | --- | --- | --- | --- | --- | --- | --- |
| CCCC[C@H](NC(=O)[C@H](C)NC(=O)[C@@H](NC(=O)c1ccccc1)C(C)C)C(=O)COC(=O)c1ccccc1 [Compound 1] | 210000 M⁻¹ s⁻¹ |  |  |  |  |  |  |  |  |  |
| CCCC[C@H](NC(=O)[C@H](C)NC(=O)[C@@H](NC(=O)c1ccccc1)C(C)C)C(=O)COC(=O)c1c(C(F)(F)F)cccc1C(F)(F)F [Compound 2] | 1.6e+06 M⁻¹ s⁻¹ |  |  |  |  |  |  |  |  |  |
| CC(C)[C@H](NC(=O)[C@H](C)NC(=O)[C@@H](NC(=O)c1ccccc1)C(C)(C)C)C(=O)C(=O)NC1CCCCC1 [Compound 22, N-{(S)-1-[(S)-1-((S)-1-Cyclohexylaminooxalyl-2-methyl-propylcarbamoyl)-ethylcarbamoyl]-2,2-dimethyl-propyl}-benzamide] |  | 378 ± 27 nM | 3.9 |  |  |  |  |  |  | degradation by airway macrophages [4]: no significant degradation; IC50 [5]: 14 ± 3 nM |
| CC(C)[C@H](NC(=O)[C@H](C)NC(=O)[C@@H](NC(=O)C1CC[N+](C)(C)CC1)C(C)(C)C)C(=O)C(=O)NCc1ccccc1.O=C[O-] [Compound 32, 4-{(S)-1-[(S)-1-((S)-1-Benzylaminooxalyl-2-methyl-propylcarbamoyl)-ethylcarbamoyl]-2,2-dimethyl-propylcarbamoyl}-1,1-dimethyl-piperidinium Formate] |  | 274 ± 44 nM | -0.9 | 4 nM | 20 ± 13 nM | 1% | 8 ± 0 nM | Good efficacy | 0.388 | F % (bioavailability) [7, 12]: 0.6 ± 0.2%; eosinophil recruitment [8]: marked inhibition; increase in total nucleated cells recoverable by BAL [8]: significantly blunted |
| CC(C)[C@H](NC(=O)[C@H](C)NC(=O)[C@H](Cc1ccccc1)NC(=O)c1ccccc1)C(=O)C(=O)NCC(=O)N1CC[N+](C)(C)CC1.O=C[O-] [Compound 52, 4-(2-{(S)-3-[(S)-2-((S)-2-Benzoylamino-3-phenyl-propionylamino)-propionylamino]-4-methyl-2-oxo-pentanoylamino}-acetyl)-1,1-dimethyl-piperazin-1-ium Formate] |  | > 2500 nM | -0.6 | 11 ± 1 nM | 7 ± 2 nM | 0% | 3 ± 0 nM | Good efficacy | 0.365 | IC50 [11]: 114 ± 7 nM |

— publication PMC4257840 (Journal of Medicinal Chemistry, 2014)
